Patent EP0555116B1, “Compositions based on antiseptics and their applications” (HUTCHINSON, priority 1992, dated 1993)
Read-outs that look alike come from different tables or passages of the source.

Legend:
E. coli ATCC 11229 [1] = assay: Growth inhibition test (DGHM, Essai 2, Tables A-C), 72 h at 37°C; non/A/B/C = without or with inactivating substances A, B, C; format: cell-based, Escherichia coli
Experimental: (§1) Un autre essai a été réalisé à partir des solutions suivantes : • 100 ml d'une solution à 0,1 % de digluconate de chlorhexidine (pH 6) et • 100 ml d'une solution à 0,1 % de Bardac 22®.
L'activité de ces solutions, seules ou en combinaison a été plus particulièrement testée vis-à-vis de Staphylococcus aureus ATCC 6538, Escherichia coli ATCC 11229 et Candida albicans ATCC 10231.
(§2) Les tests ont été réalisés conformément au protocole décrit dans le Chapitre I/2.1 et 2.2 de Richtlinien für die Prüfung und Bewertung chemischer Desinfektionsverfahren der DGHM, Stand 1.1., 1981).
Les Tableaux A, B et C illustrent respectivement l'activité bactéricide et fongicide d'une solution aqueuse à 0,1 % de digluconate de chlorhexidine, d'une solution aqueuse à 0,1 % de Bardac 22® et d'un mélange à part égale des deux composés. Les protocoles dont ces Tableaux illustrent les résultats comprennent une incubation de 72 heures à 37°C et l'utilisation, comme témoins, des substances inactivantes suivantes : A : Tween® 80 3 % + lécithine 0,3 % + cystéine 0,1 %; B : Tween® 80 3 % + saponine 3 % + cystéine 0,1 % + histidine 0,1 %; C : Tween® 80 3 % + lécithine 0,3 % + histidine 0,1 % + thiosulfate de sodium 0,5 %.
Dans ces Tableaux, le signe "+" indique une croissance et le signe "-" l'absence de croissance.

E. coli ATCC 11229 [2] = assay: Disinfection time test (Essai 2, Tables D-F), reaction at 22°, subcultures 72 h at 37°C; format: cell-based, Escherichia coli
Experimental: as §1, §2
Les tests dont les résultats sont illustrés aux Tableaux D, E et F ont été réalisés à une température de réaction de 22° avec une incubation des sous-cultures 72 heures à 37°C avec comme substances inactivantes : Tween® 80 3 % + saponine 3 % + cystéine 0,1 % + histidine 0,1 %; ces Tableaux illustrent respectivement l'activité bactéricide et fongicide d'une solution aqueuse à 0,1 % de digluconate de chlorhexidine, d'une solution aqueuse à 0,1 % de Bardac 22® et d'un mélange à part égale des deux composés et montrent l'action des antiseptiques précités, en fonction du temps de contact, et font apparaître la même synergie d'action de l'association que ci-dessus, dans la mesure où l'association des deux composés permet de diminuer significativement leur concentration, pour l'obtention d'un même effet. TABLEAU D

spermatozoïdes = assay: Spermicidal action: vitality of spermatozoa (eosin-nigrosin, 100 spermatozoa examined); format: cell-based; conditions: Homo sapiens, Sperm; for viability at 0.4 %: read-out: vitalité des spermatozoïdes, solution 0,4 %; for viability at 0.6 %: read-out: vitalité des spermatozoïdes, solution 0,6 %; for viability at 0.8 %: read-out: vitalité des spermatozoïdes, solution 0,8 %; for viability at 1 %: read-out: vitalité des spermatozoïdes, solution 1 %
From the text: Les différents échantillons de sperme (une goutte de sperme/échantillon) sont obtenus à partir de volontaires sains.
Une goutte de sperme est traitée par l'éosinenigrosine. Un frottis est ensuite réalisé et cent spermatozoïdes sont examinés au microscope. Les cellules mortes sont colorées en rouge, soit totalement, soit partiellement. Les cellules vivantes sont incolores.
Les substances étudiées ont été, le Bardac® et le digluconate de chlorhexidine, testés seuls et en association conformément à l'invention. Les différentes étapes du protocole sont indiquées aux Tableaux IV à VI.
Le temps de contact maximum des différentes substances et du sperme a été limité à 3 minutes afin de garantir l'efficacité de la méthode dans les conditions d'utilisation. La concentration des solutions actives dans le sperme a été limitée à 10 % afin de diminuer les risques de toxicité des produits pour les muqueuses. TABLEAU IV

[3] = 1 min, 1 Min, 5 % dans le sperme
[4] = 1 min, 1 Min, 10 % dans le sperme
[5] = 0.05 h, 3 Min, 5 % dans le sperme
[6] = 0.05 h, 3 Min, 10 % dans le sperme

CCCCCCCCCC[N+](C)(C)CCCCCCCCCC [Bardac®, chlorure de didécyldiméthylammonium]
croissance (E. coli ATCC 11229 [1]; Conc. 0,1 % (vol/vol), A): +
croissance (E. coli ATCC 11229 [1]; Conc. 0,1 % (vol/vol), B): +
croissance (E. coli ATCC 11229 [1]; Conc. 0,1 % (vol/vol), C): +
croissance (E. coli ATCC 11229 [1]; Conc. 0,1 % (vol/vol), non): +
croissance (E. coli ATCC 11229 [1]; Conc. 0,05 % (vol/vol), A): +
croissance (E. coli ATCC 11229 [1]; Conc. 0,5 % (vol/vol), A): +
croissance (E. coli ATCC 11229 [1]; Conc. 0,05 % (vol/vol), B): +
croissance (E. coli ATCC 11229 [1]; Conc. 0,5 % (vol/vol), B): +
croissance (E. coli ATCC 11229 [1]; Conc. 0,05 % (vol/vol), C): +
croissance (E. coli ATCC 11229 [1]; Conc. 0,5 % (vol/vol), C): +
croissance (E. coli ATCC 11229 [1]; Conc. 0,05 % (vol/vol), non): +
croissance (E. coli ATCC 11229 [1]; Conc. 0,5 % (vol/vol), non): -
croissance (E. coli ATCC 11229 [1]; Conc. 1,0 % (vol/vol), A): +
croissance (E. coli ATCC 11229 [1]; Conc. 1,0 % (vol/vol), B): +
croissance (E. coli ATCC 11229 [1]; Conc. 1,0 % (vol/vol), C): +
croissance (E. coli ATCC 11229 [1]; Conc. 1,0 % (vol/vol), non): -
croissance (E. coli ATCC 11229 [1]; Conc. 0,00625 % (vol/vol), A): +
croissance (E. coli ATCC 11229 [1]; Conc. 0,00625 % (vol/vol), B): +
croissance (E. coli ATCC 11229 [1]; Conc. 0,00625 % (vol/vol), C): +
croissance (E. coli ATCC 11229 [1]; Conc. 0,00625 % (vol/vol), non): +
croissance (E. coli ATCC 11229 [1]; Conc. 0,0125 % (vol/vol), A): +
croissance (E. coli ATCC 11229 [1]; Conc. 0,0125 % (vol/vol), B): +
croissance (E. coli ATCC 11229 [1]; Conc. 0,0125 % (vol/vol), C): +
croissance (E. coli ATCC 11229 [1]; Conc. 0,0125 % (vol/vol), non): +
croissance (E. coli ATCC 11229 [1]; Conc. 0,025 % (vol/vol), A): +
croissance (E. coli ATCC 11229 [1]; Conc. 0,025 % (vol/vol), B): +
croissance (E. coli ATCC 11229 [1]; Conc. 0,025 % (vol/vol), C): +
croissance (E. coli ATCC 11229 [1]; Conc. 0,025 % (vol/vol), non): +
concentration en substance active inhibant la croissance (E. coli ATCC 11229 [1]; antiseptique seul): 0,0005%
croissance (E. coli ATCC 11229 [2]; Conc. 0,1 % (vol/vol), 1 min): +
croissance (E. coli ATCC 11229 [2]; Conc. 0,1 % (vol/vol), 3 min): +
croissance (E. coli ATCC 11229 [2]; Conc. 0,1 % (vol/vol), 5 min): +
croissance (E. coli ATCC 11229 [2]; Conc. 0,1 % (vol/vol), 15 min): +
croissance (E. coli ATCC 11229 [2]; Conc. 0,1 % (vol/vol), 30 min): +
croissance (E. coli ATCC 11229 [2]; Conc. 0,1 % (vol/vol), 60 min): +
croissance (E. coli ATCC 11229 [2]; Conc. 0,05 % (vol/vol), 1 min): +
croissance (E. coli ATCC 11229 [2]; Conc. 0,5 % (vol/vol), 1 min): +
croissance (E. coli ATCC 11229 [2]; Conc. 0,05 % (vol/vol), 3 min): +
croissance (E. coli ATCC 11229 [2]; Conc. 0,5 % (vol/vol), 3 min): +
croissance (E. coli ATCC 11229 [2]; Conc. 0,05 % (vol/vol), 5 min): +
croissance (E. coli ATCC 11229 [2]; Conc. 0,5 % (vol/vol), 5 min): +
croissance (E. coli ATCC 11229 [2]; Conc. 0,05 % (vol/vol), 15 min): +
croissance (E. coli ATCC 11229 [2]; Conc. 0,5 % (vol/vol), 15 min): +
croissance (E. coli ATCC 11229 [2]; Conc. 0,05 % (vol/vol), 30 min): +
croissance (E. coli ATCC 11229 [2]; Conc. 0,5 % (vol/vol), 30 min): +
croissance (E. coli ATCC 11229 [2]; Conc. 0,05 % (vol/vol), 60 min): +
croissance (E. coli ATCC 11229 [2]; Conc. 0,5 % (vol/vol), 60 min): +
croissance (E. coli ATCC 11229 [2]; Conc. 1 % (vol/vol), 1 min): +
croissance (E. coli ATCC 11229 [2]; Conc. 1 % (vol/vol), 3 min): +
croissance (E. coli ATCC 11229 [2]; Conc. 1 % (vol/vol), 5 min): +
croissance (E. coli ATCC 11229 [2]; Conc. 1 % (vol/vol), 15 min): +
croissance (E. coli ATCC 11229 [2]; Conc. 1 % (vol/vol), 30 min): +
croissance (E. coli ATCC 11229 [2]; Conc. 1 % (vol/vol), 60 min): +
croissance (E. coli ATCC 11229 [2]; Conc. 5 % (vol/vol), 1 min): +
croissance (E. coli ATCC 11229 [2]; Conc. 5 % (vol/vol), 3 min): +
croissance (E. coli ATCC 11229 [2]; Conc. 5 % (vol/vol), 5 min): +
croissance (E. coli ATCC 11229 [2]; Conc. 5 % (vol/vol), 15 min): -
croissance (E. coli ATCC 11229 [2]; Conc. 5 % (vol/vol), 30 min): -
croissance (E. coli ATCC 11229 [2]; Conc. 5 % (vol/vol), 60 min): -
croissance (E. coli ATCC 11229 [2]; Conc. 10 % (vol/vol), 1 min): +
croissance (E. coli ATCC 11229 [2]; Conc. 10 % (vol/vol), 3 min): +
croissance (E. coli ATCC 11229 [2]; Conc. 10 % (vol/vol), 5 min): -
croissance (E. coli ATCC 11229 [2]; Conc. 10 % (vol/vol), 15 min): -
croissance (E. coli ATCC 11229 [2]; Conc. 10 % (vol/vol), 30 min): -
croissance (E. coli ATCC 11229 [2]; Conc. 10 % (vol/vol), 60 min): -
croissance (E. coli ATCC 11229 [2]; Conc. 25 % (vol/vol), 1 min): -
croissance (E. coli ATCC 11229 [2]; Conc. 25 % (vol/vol), 3 min): -
croissance (E. coli ATCC 11229 [2]; Conc. 25 % (vol/vol), 5 min): -
croissance (E. coli ATCC 11229 [2]; Conc. 25 % (vol/vol), 15 min): -
croissance (E. coli ATCC 11229 [2]; Conc. 25 % (vol/vol), 30 min): -
croissance (E. coli ATCC 11229 [2]; Conc. 25 % (vol/vol), 60 min): -
viability at 0.4 % (spermatozoïdes; [3]): 10.7 ± 7.6%
viability at 0.4 % (spermatozoïdes; [4]): 5 ± 6.4%
viability at 0.6 % (spermatozoïdes; [3]): 10.5 ± 9.7%
viability at 0.6 % (spermatozoïdes; [4]): 9.2 ± 12.9%
viability at 0.8 % (spermatozoïdes; [3]): 9.7 ± 10.2%
viability at 0.8 % (spermatozoïdes; [4]): 1.8 ± 2.5%
viability at 1 % (spermatozoïdes; [3]): 0%
viability at 1 % (spermatozoïdes; [4]): 0%
viability at 0.4 % (spermatozoïdes; [5]): 0.8 ± 1.2%
viability at 0.4 % (spermatozoïdes; [6]): 0.8 ± 1%
viability at 0.6 % (spermatozoïdes; [5]): 2.2 ± 4.5%
viability at 0.6 % (spermatozoïdes; [6]): 0.4 ± 0.9%
viability at 0.8 % (spermatozoïdes; [5]): 0%
viability at 0.8 % (spermatozoïdes; [6]): 0%
viability at 1 % (spermatozoïdes; [5]): 0%
viability at 1 % (spermatozoïdes; [6]): 0%
